Five molecules from patent US8293751B2, “1,2,3-trisubstituted aryl and heteroaryl derivatives as modulators of metabolism and the prophylaxis and treatment of disorders related thereto such as diabetes and hyperglycemia” (Arena Pharmaceuticals, Inc., priority 2003, dated 2012) can be followed below.

Usually IC50 stands for the concentration needed to halve the response being measured. The low end stands for inhibition by little substance, the high end for a need for much substance.

One test concerns isolated rat islets. Put plainly: Stimulation of insulin secretion in isolated rat islets. Type of test: cell-based. The settings on record: 10 μM concentration, enhancement comparable to 25 nM GLP-1, FIG. 4D. How it is done:
E. Stimulation of Insulin Secretion in Isolated Rat Islets
As with HIT-T15 cells, it is known that stimulation of cAMP in isolated rat islets causes an increase in insulin secretion when the glucose concentration in the culture media is changed from 60 mg/dl to 300 mg/dl. RUP3 is an endogenously expressed GPCR in the insulin-producing cells of rat islets. Thus, RUP3 ligands can also be tested for their ability to stimulate GSIS in rat islet cultures. This assay is performed as follows: • A. Select 75-150 islet equivalents (IEQ) for each assay condition using a dissecting microscope. Incubate overnight in low-glucose culture medium. (Optional.) • B. Divide the islets evenly into triplicate samples of 25-40 islet equivalents per sample. Transfer to 40 μm mesh sterile cell strainers in wells of a 6-well plate with 5 ml of low (60 mg/dl) glucose Krebs-Ringers Buffer (KRB) assay medium. • C. Incubate 30 minutes (1 hour if overnight step skipped) at 37° C. and 5% CO2. Save the supernatants if a positive control for the RIA is desired. • D. Move strainers with islets to new wells with 5 ml/well low glucose KRB. […] Freeze and store at <−20° C. until insulin concentrations can be determined. • I. Insulin determinations are done as above, or by Linco Labs as a custom service, using their rat insulin RIA (Cat. #RI-13K). […]

The next test has as its target T1, RUP3 (Homo sapiens, UniProt Q8TDV5).
T1 construct: seen in the listing only (N); seen in the listing only (C); expressed in transfected cells
T1 sequence (Q8TDV5 with tags, fused parts or gaps): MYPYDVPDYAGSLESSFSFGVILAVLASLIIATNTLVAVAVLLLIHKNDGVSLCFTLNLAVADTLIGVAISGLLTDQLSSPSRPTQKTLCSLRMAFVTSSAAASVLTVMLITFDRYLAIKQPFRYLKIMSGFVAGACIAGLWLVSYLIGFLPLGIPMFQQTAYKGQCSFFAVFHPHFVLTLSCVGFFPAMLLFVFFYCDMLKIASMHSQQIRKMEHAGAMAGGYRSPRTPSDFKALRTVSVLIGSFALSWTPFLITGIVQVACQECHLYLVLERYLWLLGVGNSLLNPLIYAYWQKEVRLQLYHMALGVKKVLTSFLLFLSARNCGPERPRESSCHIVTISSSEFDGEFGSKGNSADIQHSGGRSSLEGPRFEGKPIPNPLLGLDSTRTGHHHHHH
Nature of the test: 96-Well Cyclic AMP Membrane Assay for RUP3 (Membrane Cyclase Assay). The following applies: RUP3 membranes, cAMP Flashplate. Type of test: biochemical. How it is done:
96-Well Cyclic AMP Membrane Assay for RUP3
Binding Buffer—filter through […] Nalgene filter and keep in refrigerator. All buffers and membranes should be kept cold (in ice bucket) while performing assay. • 20 mM Hepes, pH7.4 • 1 mM MgCl2 • 100 mM NaCl • 2× Regeneration Buffer (make in binding buffer): • 20 mM Phosphocreatine (1.02 gm/200 ml binding buffer) • 20 units Creatine phosphokinase (4 mg/200 ml) • 20 uM GTP (make up 10.46 mg/ml in binding buffer and add 200 ul/200 ml) • 0.2 mM ATP (22.04 mg/200 ml) • […] IBMX (44.4 mg IBMX dissolved in 1 ml 100% DMSO first and then add the entire amount to 200 ml of buffer).
Regeneration buffer can be aliquotted into 40-45 ml portions (in 50 ml sterile tubes) and kept frozen for up to 2 months. Simply put the tube in a beaker with room temperature water to thaw out the regeneration buffer on the day of the assay. […]
IC50s or EC50s are done in triplicate. […] The membranes are kept in ice all the time, and a polytron (Brinkmann polytron, model #PT-3100) is used (setting 6-7, for 15-20 seconds) to obtain a homogeneous membrane suspension.) Protein concentration is determined by Bradford protein assay kit using instructions given in the kit, using the standard supplied with the kit as a reference. […]

Test [1] deals with HIT-T15 cells. Nature of the test: Stimulation of insulin secretion in HIT-T15 cells. The test is classed as cell-based, hamster. The following applies: HIT-T15 cells exposed to 15 mM glucose; compared with forskolin; FIG. 4C. How it is done: D. Stimulation of Insulin Secretion in HIT-T15 Cells
It is known that stimulation of cAMP in HIT-T15 cells causes an increase in insulin secretion when the glucose concentration in the culture media is changed from 3 mM to 15 mM. Thus, RUP3 ligands can also be tested for their ability to stimulate glucose-dependent insulin secretion (GSIS) in HIT-T15 cells. In this assay, 30,000 cells/well in a 12-well plate are incubated in culture media containing 3 mM glucose and no serum for 2 hours. The media is then changed; wells receive media containing either 3 mM or 15 mM glucose, and in both cases the media contains either vehicle (DMSO) or RUP3 ligand at a concentration of interest. Some wells receive media containing 1 uM forskolin as a positive control. All conditions are tested in triplicate. Cells are incubated for 30 minutes, and the amount of insulin secreted into the media is determined by ELISA, using a kit from either Peninsula Laboratories (Cat #ELIS-7536) or Crystal Chem Inc. (Cat #90060).
In the first of these, RUP3 agonists are used to stimulate HIT-T15 cells, which express RUP3 at significant levels, as indicated in the Northern blot shown in FIG. 4A.

The subject of test [2] is HIT-T15 cells. Nature of the test: Stimulation of cAMP in HIT-T15 cells. Type of test: cell-based, hamster. The settings on record: compared with adenyl cyclase activator forskolin, FIG. 4B. How it is done:
C. Stimulation of cAMP in HIT-T15 Cells
HIT-T15 (ATCC CRL#1777) is an immortalized hamster insulin-producing cell line. These cells express RUP3 and therefore can be used to assess the ability of RUP3 ligands to stimulate or inhibit cAMP accumulation via its endogenously expressed receptor. In this assay, cells are grown to 80% confluence and then distributed into a 96-well Flashplate (50,000 cells/well) for detection of cAMP via a “cAMP Flashplate Assay” (NEN, Cat #SMP004). Briefly, cells are placed into anti-cAMP antibody-coated wells that contain either vehicle, the test ligand(s) at a concentration of interest, or 1 uM forskolin. The latter is a direct activator of adenylyl cyclase and serves as a positive control for stimulation of cAMP in HIT-T15 cells. All conditions are tested in triplicate. After ail hour incubation to allow for stimulation of cAMP, a Detection Mix containing ^125I-cAMP is added to each well and the plate is allowed to incubate for another 1 hour. The wells are then aspirated to remove unbound ^125I-cAMP. Bound ^125I-cAMP is detected using a Wallac Microbeta Counter. The amount of cAMP in each sample is determined by comparison to a standard curve, obtained by placing known concentrations of cAMP in some wells on the plate. […]

The subject of test [3] is db mice (C57BL/KsOlahsd-Leprdb, diabetic). Nature of the test: Acute response of db mice to RUP3 agonist (blood glucose). The test is classed as in vivo. The settings on record: male db mice; 1 μg/kg, intraperitoneally; FIG. 5B. How it is done: B. […] Male db mice (C57BL/KsOlahsd-Leprdb, diabetic, Harlan) at age of 10 weeks were randomly grouped (n=6) to receive vehicle (oral gavage), Compound B70 (60 mg/kg, oral gavage), or Ex-4 (1 μg/kg, intraperitoneally). After compound administration, food was removed and blood glucose levels were determined at indicated times as shown in FIG. 5B. Reduction in blood glucose at each time point was expressed as percentage of original glucose levels, averaged from six animals for each group.

Entries after “also recorded” stand apart in the source; their conditions may differ.

Consider `CCOC(=O)C1CCN(c2ncnc(Oc3ccc(C4NC(=O)NC4=O)cc3)c2[N+](=O)[O-])CC1` (stereo not shown) [Compound A48, 1-{6-[4-(2,5-Dioxo-imidazolidin-4-yl)-phenoxy]-5-nitro-pyrimidin-4-yl}-piperidine-4-carboxylic acid ethyl ester], for which the glucose-dependent insulin release entry in the test on isolated rat islets is recorded as “enhanced glucose-dependent insulin release compared to control”.

In the case of `CCOC(=O)C1CCN(c2ncnc(Oc3ccc(CCC(C)=O)cc3)c2[N+](=O)[O-])CC1` [Compound A51, 1-{5-Nitro-6-[4-(3-oxo-butyl)-phenoxy]-pyrimidin-4-yl}-piperidine-4-carboxylic acid ethyl ester], in the test on isolated rat islets, the glucose-dependent insulin release entry was “enhanced glucose-dependent insulin release compared to control”.

On RUP3, `CCCC1CCN(c2ncnc(Oc3ccc(C(=O)c4ccc(F)cc4)cc3)c2[N+](=O)[O-])CC1` [Compound A124, (4-Fluoro-phenyl)-{4-[5-nitro-6-(4-propyl-piperidin-1-yl)-pyrimidin-4-yloxy]-phenyl}-methanone] yielded an IC50 of 241 nM.

Regarding `CS(=O)(=O)c1ccc(Nc2ncnc(N3CCC(Sc4ccccc4)CC3)c2[N+](=O)[O-])cc1` [Compound B84, (4-Methanesulfonyl-phenyl)-[5-nitro-6-(4-phenylsulfanyl-piperidin-1-yl)-pyrimidin-4-yl]-amine], the “insulin secretion in HIT cells” value with HIT-T15 cells [1] is listed as “stimulates insulin secretion in HIT cells exposed to 15 mM glucose, once again at a level comparable to that seen with the adenyl cyclas activator forskolin; also recorded: stimulates insulin secretion in HIT cells exposed to 15 mM glucose, at a level comparable to that seen with the adenylcyclase activator forskolin”. On RUP3, the IC50 was 50 nM. Also, the “cAMP production in HIT cells” value with HIT-T15 cells [2] was “stimulates cAMP production in HIT cells, at a level comparable to that seen with the adenyl cyclase activator forskolin”.

For the molecule extendin-4 [Ex-4, reference compound], in test [3], the “blood glucose levels compared to vehicle control” value is recorded as “significantly reduces glucose levels compared to vehicle control”.
